From PubChem BioAssay (NCI)
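The compound was tested at five concentrations on cells cultured in 96-well plates, with a 48-hour exposure period. GI50 = concentration required for 50% inhibition of growth. The concentration for full growth arrest is given as TGI.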

How the values were obtained:
Assay in all cases: growth of human tumour cells (NCI), 48 h
IGROV1 ovarian = system: IGROV1 ovarian
A549 NSCLC = system: A549 NSCLC
OVCAR-3 ovarian = system: OVCAR-3 ovarian
SNB-19 CNS = system: SNB-19 CNS
OVCAR-5 ovarian = system: OVCAR-5 ovarian
SW-620 colon = system: SW-620 colon
U251 CNS = system: U251 CNS
MDA-MB-231 breast = system: MDA-MB-231 breast
SK-MEL-5 melanoma = system: SK-MEL-5 melanoma
SK-MEL-2 melanoma = system: SK-MEL-2 melanoma

| Compound | GI50 (IGROV1 ovarian) [µM] | TGI (IGROV1 ovarian) [µM] | GI50 (A549 NSCLC) [µM] | TGI (A549 NSCLC) [µM] | GI50 (OVCAR-3 ovarian) [µM] | TGI (OVCAR-3 ovarian) [µM] | GI50 (SNB-19 CNS) [µM] | TGI (SNB-19 CNS) [µM] | GI50 (OVCAR-5 ovarian) [µM] | TGI (OVCAR-5 ovarian) [µM] | GI50 (SW-620 colon) [µM] | TGI (SW-620 colon) [µM] | GI50 (U251 CNS) [µM] | TGI (U251 CNS) [µM] | GI50 (MDA-MB-231 breast) [µM] | TGI (MDA-MB-231 breast) [µM] | TGI (SK-MEL-5 melanoma) [µM] | TGI (SK-MEL-2 melanoma) [µM] | GI50 (SK-MEL-5 melanoma) [µM] | GI50 (SK-MEL-2 melanoma) [µM] |
| --- | --- | --- | --- | --- | --- | --- | --- | --- | --- | --- | --- | --- | --- | --- | --- | --- | --- | --- | --- | --- |
| C[CH2][Hg][S]c1ccccc1C(=O)O | 1.37 | 4.42 | 1.78 | 3.94 | 0.871 | 2.09 | 2.98 | 12.3 | 1.77 | 3.26 | 0.838 | 2.24 | 1.56 | 3.03 | 1.26 | 2.58 | – | – | – | – |
| N#CCN1C(=O)c2cc([N+](=O)[O-])cc3cc([N+](=O)[O-])cc(c23)C1=O | – | 18.3 | – | 43.8 | – | 27.1 | – | > 100 | – | 36.1 | – | 20.3 | – | > 55.6 | – | – | 29.8 | 14.1 | – | – |
| Cn1ccnc1Oc1ccc(Cl)cc1 | – | – | – | > 100 | – | – | – | > 100 | – | 35.7 | – | 26.4 | – | 46.7 | – | 37.4 | 27.1 | 39.5 | – | – |
| CCOC(=O)C1Nc2ccccc2[C@H]2OCC[C@@H]12 (stereo partly drawn) | – | > 100 | – | > 100 | – | > 100 | – | > 100 | – | > 100 | – | > 100 | – | > 100 | – | – | > 100 | > 100 | – | – |
| N#CCCNc1nonc1-c1nc2ccccc2n1CC(=O)c1ccc(NC(=O)[C@@H](N)CCCCN)cc1 | 0.11 | > 100 | 0.0463 | > 100 | 0.0235 | 0.0542 | > 100 | > 100 | 0.0644 | > 100 | 0.0443 | > 100 | 0.0445 | > 100 | 0.0599 | > 100 | 0.197 | – | 0.03 | – |
| O=C1OC(=O)c2c1c(-c1ccccc1)nc1ccccc21 | – | > 100 | – | > 100 | – | > 100 | – | > 100 | – | – | – | > 100 | – | > 100 | – | – | > 100 | > 100 | – | – |
| O=C(O)c1ccccc1NC(=S)c1ccccc1 | – | 98.9 | – | > 100 | – | > 100 | – | > 100 | – | > 100 | – | > 100 | – | > 100 | – | > 100 | > 100 | – | – | – |
| O=C(O)CCNS(=O)(=O)c1ccc([N+](=O)[O-])cc1 | – | > 100 | – | > 100 | – | > 100 | – | > 100 | – | > 100 | – | > 100 | – | > 100 | – | – | > 100 | > 100 | – | – |
| NC1=NC(=O)C(CC(=O)Nc2ccc(Cl)cc2Cl)S1 (stereo not drawn) | – | > 100 | – | > 100 | – | > 100 | – | > 100 | – | > 100 | – | > 100 | – | > 100 | – | – | > 100 | > 100 | – | – |
| O=C(O)c1cc(CCc2cc(O)ccc2O)ccc1O | – | > 100 | – | > 100 | – | > 100 | – | – | – | > 100 | – | > 100 | – | > 100 | – | – | > 100 | > 100 | – | – |
| CC1=C(CC2C(=O)N(c3ccccc3)S(=O)(=O)NC2C)C(=O)N(c2ccccc2)S(=O)(=O)N1C (stereo not drawn) | – | > 100 | – | > 100 | – | > 100 | – | > 100 | – | > 100 | – | > 100 | – | – | – | – | > 100 | > 100 | – | – |
| CC(=O)/C(=C\c1ccccc1O)C(=O)Nc1ccccc1C | – | 79 | – | 89.1 | – | 72 | – | 54.3 | – | 37.1 | – | 53.7 | – | 24.7 | – | – | 27.9 | 46.9 | – | – |
| O=C(c1ccccc1)c1c(CC(O)c2ccncc2)n(C(=O)c2ccccc2)c2ccccc12 (stereo not drawn) | – | 40.5 | – | 52.8 | – | 28.9 | – | 73.1 | – | 34.5 | – | 39.2 | – | 31.6 | – | – | 30.1 | 31 | – | – |
| COc1cc(C2(C)SCCCS2)cc(OC)c1OC | – | > 100 | – | > 100 | – | > 100 | – | > 100 | – | > 100 | – | > 100 | – | > 100 | – | – | > 100 | > 100 | – | – |
| CC1=C(C(=O)Nc2ccc(Cl)c(Cl)c2)C(c2ccc([N+](=O)[O-])cc2)C(C(=O)Nc2ccc(Cl)c(Cl)c2)=C(C)N1 | – | 14.8 | – | 15.1 | – | 4.56 | – | > 71.3 | – | 10 | – | 12.4 | – | 11.5 | – | – | 3.39 | 4.79 | – | – |
| N#CCCC1(CCC#N)CCCCCCCCC(CCC#N)(CCC#N)C(O)C1O (stereo not drawn) | – | > 100 | – | > 100 | – | > 100 | – | > 100 | – | > 100 | – | > 100 | – | > 100 | – | – | > 100 | > 100 | – | – |
| N#CNc1nc(N)c(-c2ccc(Cl)cc2)c(C(=O)Nc2nccs2)n1 | – | > 100 | – | > 100 | – | > 100 | – | > 100 | – | > 100 | – | > 100 | – | > 100 | – | – | > 100 | > 100 | – | – |
| CNNC(=NS(=O)(=O)c1cc(C#N)c(NNC)cc1S)NNC | – | > 10 | – | > 10 | – | > 10 | – | > 10 | – | > 10 | – | > 10 | – | > 10 | – | – | > 10 | > 10 | – | – |
| COc1ccc(-c2cc(=O)c3c(O)cccc3o2)c(OC)c1OC | – | > 100 | – | > 100 | – | > 100 | – | – | – | > 100 | – | > 100 | – | > 100 | – | – | > 100 | > 100 | – | – |
| C[n+]1c2ccccc2nc2c(N)cc(N)cc21 | 14.4 | 57 | 14.1 | > 100 | 3.69 | 22.8 | 2.9 | 14.4 | > 100 | > 100 | 10.7 | > 100 | 2.5 | > 100 | 21.7 | > 100 | 7.09 | – | 2.56 | – |
| C=C1[C@@H](O)O[C@H]2[C@H]1C[C@H](OC(C)=O)[C@]13C(=O)O[C@H]4C[C@](C)(O)[C@H]([C@H]41)C31C=C(C)[C@]2(O)O1 | 18.8 | 71.4 | > 100 | > 100 | 7.43 | 32.6 | > 100 | > 100 | 21.7 | 48 | 29.8 | > 100 | 24.2 | 64.7 | 34.9 | > 100 | – | 59.7 | – | 18.6 |
